Laboratory results reported in PubChem BioAssay AID304 (DTP/NCI, 2004).
“And” between values parts separate entries of the source, which are not always exact repeats. Equal values may be shown once. Inconclusive results and toxic doses are left out.

System: Lymphosarcoma Mecca ip in C3AKF1 mice, survival T/C%
Assay: NCI In Vivo Anticancer Drug Screen. Data for tumor model Lymphosarcoma Mecca (intraperitoneal) in C3AKF1 (CHKRF1) mice
Conditions: endpoint: survival time, mean or median, higher = longer survival
Description: The antitumor activity of compounds was measured in mice bearing transplantable tumors. Survival or tumor size were measured and the results are expressed as the measurement made in the treated group (T) divided by the measurement made in the vehicle treated control group (C). The tumor model used in this assay is Lymphosarcoma Mecca (intraperitoneal) in C3AKF1 (CHKRF1) mice

[1] = dose: 12.5 mg/kg/injection, schedule: Q01DX010 (sc), vehicle: steriod suspending solution
[2] = dose: 25.0 mg/kg/injection, schedule: Q01DX010 (sc), vehicle: steriod suspending solution
[3] = dose: 50.0 mg/kg/injection, schedule: Q01DX010 (sc), vehicle: steriod suspending solution
[4] = dose: 100.0 mg/kg/injection, schedule: Q01DX010 (sc), vehicle: steriod suspending solution
[5] = dose: 5.0 mg/kg/injection, schedule: Q01DX010 (ip), vehicle: saline
[6] = dose: 10.0 mg/kg/injection, schedule: Q01DX010 (ip), vehicle: saline
[7] = dose: 20.0 mg/kg/injection, schedule: Q01DX010 (ip), vehicle: saline
[8] = dose: 80.0 mg/kg/injection, schedule: Q01DX010 (ip), vehicle: saline
[9] = dose: 25.0 mg/kg/injection, schedule: Q01DX010 (ip), vehicle: saline
[10] = dose: 50.0 mg/kg/injection, schedule: Q01DX010 (ip), vehicle: saline
[11] = dose: 100.0 mg/kg/injection, schedule: Q01DX010 (ip), vehicle: saline
[12] = dose: 200.0 mg/kg/injection, schedule: Q01DX010 (ip), vehicle: saline
[13] = dose: 400.0 mg/kg/injection, schedule: Q01DX010 (ip), vehicle: saline
[14] = dose: 4.0 mg/kg/injection, schedule: Q01DX010 (ip), vehicle: saline
[15] = dose: 8.0 mg/kg/injection, schedule: Q01DX010 (ip), vehicle: saline
[16] = dose: 16.0 mg/kg/injection, schedule: Q01DX010 (ip), vehicle: saline
[17] = dose: 32.0 mg/kg/injection, schedule: Q01DX010 (ip), vehicle: saline
[18] = dose: 1.25 mg/kg/injection, schedule: Q01DX010 (ip), vehicle: saline
[19] = dose: 2.5 mg/kg/injection, schedule: Q01DX010 (ip), vehicle: saline
[20] = dose: 1.0 mg/kg/injection, schedule: Q01DX010 (ip), vehicle: saline
[21] = dose: 31.3 mg/kg/injection, schedule: Q01DX010 (ip), vehicle: saline
[22] = dose: 62.5 mg/kg/injection, schedule: Q01DX010 (ip), vehicle: saline
[23] = dose: 125.0 mg/kg/injection, schedule: Q01DX010 (ip), vehicle: saline
[24] = dose: 250.0 mg/kg/injection, schedule: Q01DX010 (ip), vehicle: saline
[25] = dose: 40.0 mg/kg/injection, schedule: Q01DX010 (ip), vehicle: saline
[26] = dose: 12.5 mg/kg/injection, schedule: Q01DX010 (ip), vehicle: saline
[27] = dose: 0.13 mg/kg/injection, schedule: Q01DX010 (ip), vehicle: saline
[28] = dose: 0.5 mg/kg/injection, schedule: Q01DX010 (ip), vehicle: saline

`CC/C(=C(/CC)c1ccc(O)cc1)c1ccc(O)cc1` was tested, and the T/C [1] was 96 % of control and 110 % of control, the T/C [2] was 120 % of control and the T/C [3] was 88 % of control and 105 % of control. For the same compound, the T/C [4] was 92 % of control and 100 % of control.
In the case of `O=c1[nH]c(=O)n(C2CC(O)C(CO)O2)cc1F` (stereo not given), the T/C [5] is reported as 100 % of control, the T/C [6] is reported as 109 % of control and 115 % of control and the T/C [7] is reported as 113 % of control and 120 % of control. The T/C [8] was 159 % of control.
For `Nc1nc2n[nH]nc2c(=O)[nH]1`, the T/C (dose: 25.0 mg/kg/injection, schedule: Q01DX010 (ip), vehicle: alkali diluted with saline) was 115 % of control and the T/C (dose: 50.0 mg/kg/injection, schedule: Q01DX010 (ip), vehicle: alkali diluted with saline) was 88 % of control and 110 % of control.
For `Oc1cc(CN(CCCl)CCCl)c(O)cc1CN(CCCl)CCCl`, the T/C (dose: 0.63 mg/kg/injection, schedule: Q01DX010 (ip), vehicle: saline) was 120 % of control.
For `OC(CBr)C(O)C(O)C(O)CBr` (stereo not given), the T/C [9] was 100 % of control, the T/C [10] was 100 % of control and the T/C [11] was 100 % of control and 110 % of control. The T/C [12] was 89 % of control and the T/C [13] was 115 % of control.
In the case of `CC(CCC(C)OS(C)(=O)=O)OS(C)(=O)=O` (stereo not given), the T/C [14] is reported as 109 % of control, the T/C [15] is reported as 100 % of control and the T/C [16] is reported as 114 % of control. The T/C [17] was 95 % of control.
In the case of `CSc1ncnc2nc[nH]c12`, the T/C [9] is reported as 109 % of control, the T/C [10] is reported as 95 % of control and 118 % of control and the T/C [11] is reported as 95 % of control and 113 % of control. For the same compound, the T/C [12] was 104 % of control.
For `O=C(O)c1[nH]c(=O)[nH]c(=O)c1F`, the T/C [18] was 100 % of control, the T/C [19] was 88 % of control and 122 % of control and the T/C [7] was 122 % of control.
For `Nc1nc(=S)c2ncn(C3OC(CO)C(O)C3O)c2[nH]1` (stereo not given), the T/C [20] was 115 % of control and 120 % of control, the T/C (dose: 2.0 mg/kg/injection, schedule: Q01DX010 (ip), vehicle: saline) was 115 % of control and the T/C [14] was 105 % of control and 115 % of control. The T/C [15] was 90 % of control and 105 % of control.
In the case of `NC(=O)n1cccn1`, the T/C [9] is reported as 90 % of control, the T/C [10] is reported as 100 % of control and the T/C [11] is reported as 100 % of control. The T/C [12] was 100 % of control.
For `CC[n+]1c(-c2ccccc2)c2cc(N)ccc2c2ccc(N)cc21`, the T/C [18] was 100 % of control, the T/C [19] was 100 % of control and 120 % of control and the T/C [5] was 100 % of control. The T/C [6] was 105 % of control and 120 % of control and the T/C [7] was 105 % of control.
For `CS(=O)(=O)OCC(O)C(O)C(O)C(O)COS(C)(=O)=O` (stereo not given), the T/C [9] was 111 % of control, the T/C [10] was 100 % of control and 111 % of control and the T/C [11] was 100 % of control and 116 % of control. For the same compound, the T/C [12] was 100 % of control and 122 % of control and the T/C [13] was 110 % of control.
In the case of `CCCSc1ncnc2nc[nH]c12`, the T/C [21] is reported as 105 % of control and 111 % of control, the T/C [22] is reported as 105 % of control and 111 % of control and the T/C [23] is reported as 105 % of control. For the same compound, the T/C [24] was 88 % of control.
`Nc1nc(N)c2nc(CNc3ccc(C(=O)NC(CCC(=O)O)C(=O)O)cc3)cnc2n1` (stereo not given) was tested, and the T/C (dose: 0.1 mg/kg/injection, schedule: Q01DX010 (ip), vehicle: other) was 162 % of control and 215 % of control and the T/C (dose: 0.2 mg/kg/injection, schedule: Q01DX010 (ip), vehicle: other) was 155 % of control and 190 % of control.
With `COc1cc(-c2ccc(Nc3ccccc3C(=O)O)c(OC)c2)ccc1N` the T/C [6] was 105 % of control and 110 % of control, the T/C [7] was 111 % of control and 115 % of control and the T/C [25] was 122 % of control. The T/C [8] was 111 % of control.
`O=[n+]1c2c(n([O-])c3ccccc31)-c1cccc3cccc-2c13` was tested, and the T/C (dose: 3.13 mg/kg/injection, schedule: Q01DX010 (ip), vehicle: saline) was 100 % of control, the T/C [26] was 88 % of control and the T/C [9] was 90 % of control.
For `COC1C(OC(=O)/C=C/C=C/C=C/C=C/C(=O)O)CCC2(CO2)C1C1(C)OC1CC=C(C)C` (stereo not given), the T/C [9] was 100 % of control, the T/C [10] was 100 % of control and 110 % of control and the T/C [11] was 100 % of control and 104 % of control. For the same compound, the T/C [12] was 90 % of control.
`CCN(CC)CCCC(C)Nc1c2ccc(Cl)cc2nc2ccc(OC)cc12` (stereo not given) was tested, and the T/C [26] was 100 % of control, the T/C [9] was 100 % of control and 111 % of control and the T/C [10] was 90 % of control and 105 % of control. The T/C [11] was 95 % of control and 111 % of control.
With `C[C@H](N)C(=O)N[C@@H]1[C@H]2C(=C(O)C[C@@H](O)[C@@H]2O)C(=O)O[C@@H]1C` the T/C (dose: 150.0 mg/kg/injection, schedule: Q01DX010 (ip), vehicle: saline) was 155 % of control, the T/C (dose: 300.0 mg/kg/injection, schedule: Q01DX010 (ip), vehicle: saline) was 92 % of control and the T/C (dose: 600.0 mg/kg/injection, schedule: Q01DX010 (ip), vehicle: saline) was 100 % of control and 120 % of control. For the same compound, the T/C (dose: 1200.0 mg/kg/injection, schedule: Q01DX010 (ip), vehicle: saline) was 155 % of control.
For `C1CN1c1nc(N2CC2)nc(N2CC2)n1`, the T/C [27] was 180 % of control, the T/C (dose: 0.25 mg/kg/injection, schedule: Q01DX010 (ip), vehicle: saline) was 152 % of control and the T/C [28] was 96 % of control. The T/C [20] was 95 % of control.
With `CC(=O)O[C@]1(C(C)=O)CC[C@H]2[C@@H]3C[C@H](C)C4=CC(=O)C=C[C@]4(C)[C@@]3(F)[C@@H](O)C[C@@]21C` the T/C [1] was 105 % of control, the T/C [2] was 100 % of control and the T/C [3] was 100 % of control. For the same compound, the T/C [4] was 90 % of control.
In the case of `CC(=O)NC1=C(N2CC2)C(=O)C(NC(C)=O)=C(N2CC2)C1=O`, the T/C [27] is reported as 109 % of control, the T/C [28] is reported as 177 % of control and 188 % of control and the T/C [20] is reported as 109 % of control and 111 % of control.
For `CN1CC[C@]23c4c5ccc(O)c4O[C@H]2C(=O)CC[C@H]3[C@H]1C5`, the T/C [14] was 88 % of control and 100 % of control, the T/C [15] was 100 % of control and 111 % of control and the T/C [16] was 105 % of control and 111 % of control. For the same compound, the T/C [17] was 100 % of control and 116 % of control.
`Cc1cn(C2OC(CO)C(O)C2O)c(=O)[nH]c1=O` (stereo not given) was tested, and the T/C [22] was 105 % of control, the T/C [23] was 111 % of control and the T/C [24] was 105 % of control. For the same compound, the T/C (dose: 500.0 mg/kg/injection, schedule: Q01DX010 (ip), vehicle: saline) was 111 % of control.
`Cn1c(N)nc2nc[nH]c2c1=S` was tested, and the T/C [6] was 100 % of control and 105 % of control, the T/C [7] was 100 % of control and 105 % of control and the T/C [25] was 110 % of control. The T/C [8] was 100 % of control.
In the case of `COc1ccc2c(c1OC)C(=O)O[C@@H]2[C@H]1c2c(cc3c(c2OC)OCO3)CCN1C`, the T/C [21] is reported as 100 % of control and 105 % of control, the T/C [22] is reported as 100 % of control and 116 % of control and the T/C [23] is reported as 100 % of control and 116 % of control. For the same compound, the T/C [24] was 94 % of control and 100 % of control.
`CCOC(=O)NP(=O)(N1CC1)N1CC1` was tested, and the T/C [19] was 111 % of control and 116 % of control, the T/C [5] was 116 % of control and 122 % of control and the T/C [6] was 122 % of control.
